According to article PMC11855827, “High-Throughput Screening of Five Compound Libraries for Anthelmintic Activity and Toxicity Leads to the Discovery of Two Flavonoid Compounds” (International Journal of Molecular Sciences, 2025):
Read-outs that look alike come from different tables or passages of the source.

Tested on: C. elegans
Test: microbe, parasite or virus in culture
Settings: Caenorhabditis elegans
[1] = 0 h, read-out: Percentage of motility inhibition 0 h, Table S2, C. elegans SS assay, 110 μM, 0 h, averages of 4 data points
[2] = 24 h, read-out: Percentage of motility inhibition 24 h, Table S2, C. elegans SS assay, 110 μM, 24 h, averages of 4 data points

| Structure (SMILES) | inhibition at 110 µM [1] [%] | inhibition at 110 µM [2] [%] |
| --- | --- | --- |
| CC(C)=CCC[C@](C)(O[C@@H]1O[C@H](CO)[C@@H](O)[C@H](O)[C@H]1O)[C@H]1CC[C@]2(C)[C@@H]1[C@H](O)C[C@@H]1[C@@]3(C)CC[C@H](O)C(C)(C)[C@@H]3[C@@H](O[C@@H]3O[C@H](CO)[C@@H](O)[C@H](O)[C@H]3O)C[C@]12C [Ginsenoside Rg1] | 0 | 0 |
| CC(C)=CCC[C@](C)(O)[C@H]1CC[C@]2(C)[C@@H]1[C@H](O)C[C@@H]1[C@@]3(C)CC[C@H](O)C(C)(C)[C@@H]3[C@@H](O[C@@H]3O[C@H](CO)[C@@H](O)[C@H](O)[C@H]3O[C@@H]3O[C@@H](C)[C@H](O)[C@@H](O)[C@H]3O)C[C@]12C [Ginsenoside Rg2] | 8 | 0 |
| CC(C)=CC/C=C(\C)[C@H]1CC[C@]2(C)[C@@H]1[C@H](O)C[C@@H]1[C@@]3(C)CC[C@H](O[C@@H]4O[C@H](CO)[C@@H](O)[C@H](O)[C@H]4O[C@@H]4O[C@H](CO)[C@@H](O)[C@H](O)[C@H]4O)C(C)(C)[C@@H]3CC[C@]12C [Ginsenoside Rg5] | 0 | 2 |
| CC(C)=CCC[C@](C)(O)[C@H]1CC[C@]2(C)[C@@H]1[C@H](O)C[C@@H]1[C@@]3(C)CC[C@H](O)C(C)(C)[C@@H]3[C@@H](O[C@@H]3O[C@H](CO)[C@@H](O)[C@H](O)[C@H]3O)C[C@]12C [Ginsenoside Rh1] | 0 | 9 |
| CC(C)=CCC[C@](C)(O)[C@H]1CC[C@]2(C)[C@@H]1[C@H](O)C[C@@H]1[C@@]3(C)CC[C@H](O[C@@H]4O[C@H](CO)[C@@H](O)[C@H](O)[C@H]4O)C(C)(C)[C@@H]3CC[C@]12C [Ginsenoside Rh2] | 34 | 38 |
| CC1(C)C=Cc2c(ccc3c2OC[C@@H](c2ccc(O)cc2O)C3)O1 [Glabridin] | 26 | 6 |
| CC(C)=CCc1cc([C@@H]2CC(=O)c3ccc(O)c(CC=C(C)C)c3O2)ccc1O [Glabrol] | 11 | 9 |
| COc1cc2c(cc1OC)-c1c(OC)c(OC)cc3c1[C@H](C2)N(C)CC3 [Glauci ne] | 0 | 11 |
| C=C1C(=O)[C@@]23[C@H](O)C[C@@H]4C(C)(C)C(=O)CC[C@@]4(C)[C@@H]2CC[C@@H]1[C@H]3O [Glaucocalyxin A] | 0 | 7 |
| N[C@H]1C(O)O[C@H](CO)[C@@H](O)[C@@H]1O (stereo partly drawn) [Glucosamine] | 8 | 4 |
| COc1cc2c(=O)c(-c3ccc(O)cc3)coc2cc1O [Glycitein] | 0 | 0 |
| CC1(C)[C@@H](O[C@H]2O[C@H](C(=O)O)[C@@H](O)[C@H](O)[C@H]2O[C@@H]2O[C@H](C(=O)O)[C@@H](O)[C@H](O)[C@H]2O)CC[C@]2(C)[C@H]3C(=O)C=C4[C@@H]5C[C@@](C)(C(=O)O)CC[C@]5(C)CC[C@@]4(C)[C@]3(C)CC[C@@H]12 [Glycyrrhizic acid] | 0 | 0 |
| Cc1cc2c(C(C)C)c(O)c(O)c(C=O)c2c(O)c1-c1c(C)cc2c(C(C)C)c(O)c(O)c(C=O)c2c1O [Gossypol] | 0 | 26 |
| CN(C)Cc1c[nH]c2ccccc12 [Gramine] | 0 | 0 |
| C=C1C(=O)O[C@@H]2C[C@@]3(C)[C@@H](O)C[C@@H](O)C(=C)[C@@H]3C[C@H]12 [Granilin] | 4 | 13 |
| COC1=CC(=O)C[C@@H](C)[C@]12Oc1c(Cl)c(OC)cc(OC)c1C2=O [Griseofulvin] | 3 | 1 |
| COc1ccccc1O [Guaiacol] | 6 | 10 |
| COc1ccccc1OCC(O)CO (stereo not drawn) [Guaifenesin] | 46 | 27 |
